This assay relates to CEM cells HIV-1 protection, formazan growth assay. Nature of the assay: NCI AIDS Antiviral Assay. The conditions noted are these: for IC50: measured here: growth of uninfected CEM cells. In outline: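 Protection of CEM cells against HIV-1 was scored from cell growth (soluble formazan) across five concentrations, with parallel uninfected cells. Lack of protection may reflect toxicity.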

The source made the active and inactive calls.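 The calls were made as follows: active = compounds giving half or more protection of infected cells from virus-caused growth loss, again on retest; inactive = the rest.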 Where a SMILES comes first, the peptide text is derived from it. The star is where a group is joined. Cbz = O=C(OCc1ccccc1)*; NHNH2 = NN*

For orientation: EC50 means the concentration that produces a half-maximal response. What is called IC50 is the concentration that inhibits the measured activity by half. A lower IC50 goes with greater potency. Take `CC(=O)Nc1sc(Br)cc1S(=O)(=O)c1ccc(Cl)cc1`: the EC50 is above 200 µM and the IC50 was determined as 31.6 µM.
In the same order, the values of `CC1(C)C=C(/C=N/Nc2ccc(Br)cc2)C(C#N)=C(O)C1(C#N)C#N` are above 200 µM and 28.8 µM.
On the same counts, the results for `Cc1cc(S(=O)(=O)Nc2nnc3c4ccccc4cnn23)c(S)cc1Cl` are 56.2 µM and 1170 µM.
On the same counts, the results for `CCOC(=O)c1cc(I)c(-c2cc(C)no2)n1C` are above 200 µM and 37.2 µM.
`C#CCN(C(=O)C(F)(F)F)c1ccc(C(=O)c2ccc(N(CC#C)C(=O)C(F)(F)F)cc2)cc1`: the EC50 was above 28.2 µM and the half-inhibitory concentration (IC50) was above 28.2 µM.
On to `CN(C)CCOc1cccc(OCCN(C)C)n1`, for which the EC50 is above 200 µM and the IC50 was above 200 µM.
Consider `COC1=CC(=O)c2c(O)c(CO)cc(O)c2C1=O`, for which the outcome was inactive.
As to `O=C1NN(C2=NNC3(C(=O)N2)c2ccccc2-c2ccccc23)C(c2ccccc2)=N/C1=C/c1ccc(O)cc1`, the EC50 was above 100 µM and the IC50 worked out at 66.1 µM.
For the molecule `COC(=O)C1=CCC(n2cnc3c(N)ncnc32)CC1` (stereo not drawn), the EC50 is above 912 µM and the IC50 is 110 µM.
Take `Cc1ccc2nc(N)[nH]c(=O)c2c1Sc1ccncc1`: the EC50 was above 363 µM and the IC50 came out at 1.35 µM.
On the same counts, the results for `O=C(CSc1nnc(Cc2ccccc2)o1)Nc1cccc([N+](=O)[O-])c1` are above 97.7 µM and above 97.7 µM.
Consider `Cc1cc(C)c(C2=[N+]([O-])ON3CCc4ccccc4C23)c(C)c1` (stereo not drawn), for which the EC50 was above 115 µM and the IC50 is above 115 µM.
On to `NC(CSS(=O)(=O)O)=NCCc1ccc(O)cc1`, for which the EC50 is above 200 µM and the IC50 is above 200 µM.
As for `Cc1cccc2c(N)c3cccc(C(=O)NCCN(C)C)c3nc12`, the EC50 was above 200 µM and the half-maximal inhibitory concentration (IC50) stood at 0.0631 µM.
In the same order, the values of `O=C(N/N=C/c1ccc(Cl)cc1)c1ccccc1Nc1ccccc1C(=O)N/N=C/c1ccc(Cl)cc1` are 55 µM and above 200 µM.
Regarding `c1ccc(P(=C2c3ccccc3-c3ccccc32)(c2ccccc2)c2ccccc2)cc1`, the outcome was inactive.
With `O=S1CC(c2ccccc2)=C(c2ccccc2)CS1` (stereo not drawn), the EC50 is above 200 µM and the IC50 worked out at 47.9 µM.
On the same counts, the results for `CC(=O)OC1CC(OC(C)=O)[C@@]2(C)C[C@@H]3C(C)C(=O)O[C@H]3CC(C)C12` (stereo partly drawn) are above 74.1 µM and 42.7 µM.
Take `Cc1cc(S(=O)(=O)N2CCNNC2=O)c(S)cc1Cl`: the EC50 was 27.5 µM and the IC50 was determined as 50.1 µM.
In the same order, the values of `CCCCC[C@H](O)[C@H](C)C=C1SCCCS1` are above 200 µM and 97.7 µM.
For `C/C(CC(=O)Nc1cc(C)ccc1C)=N\NC(=O)c1ccncc1`, the EC50 was above 398 µM and the IC50 was determined as 20.9 µM.
For the molecule `CC(C)C(NC(=O)C1CCCN1C(=O)OCc1ccccc1)C(=O)NN` (stereo not drawn) (Cbz-Pro-Val-NHNH2; configuration not given here), the EC50 was above 692 µM and the IC50 was determined as 407 µM.
Consider `COC(=O)Nc1cn2c(n1)sc1ccccc12`, for which the EC50 was above 200 µM and the IC50 amounted to 15.8 µM.
On to `O=P(O)(O)C(CSc1ccccc1)P(=O)(O)O`, for which the result was inactive.
Same read-out and setting: with `CCc1ccc(Nc2ccc([N+](=O)[O-])cc2[N+](=O)[O-])cc1` the entry was “inactive”.
As to `CCCCC1CC(c2cccc([N+](=O)[O-])c2)=NO1` (stereo not drawn), the EC50 is above 15.1 µM and the IC50 was above 15.1 µM.
On to `CCCCCCCCCCCCCCCCCC(=O)NCC(COP(=O)([O-])OCC[N+](C)(C)C)OCC` (stereo not drawn), for which the result was inactive.
As to `CC1(C)OC[C@@H](O)[C@H](Br)CO1`, the EC50 is above 200 µM and the IC50 amounted to 77.6 µM.
On to `COC(=O)C12CCC(C(F)(F)C1=O)C2(C)C` (stereo not drawn), for which the EC50 was above 200 µM and the IC50 was above 200 µM.
For the molecule `[CH3][Sn]([CH3])([Cl])[CH2]C(P(=O)(c1ccccc1)c1ccccc1)P(=O)(c1ccccc1)c1ccccc1`, the EC50 was above 50.1 µM and the IC50 amounted to 2.29 µM.
With `COc1cc(C(F)(F)F)nc(SC)n1`, the EC50 is above 200 µM and the IC50 was above 200 µM.
In the case of `CCOc1ccccc1NC(=O)C(=O)C(c1ccccc1)S(=O)(=O)Cc1ccccc1` (stereo not drawn), the EC50 was above 200 µM and the IC50 was determined as 120 µM.
In the same order, the values of `CCOC(=O)c1cc2c([nH]1)c(OC(C)=O)cc1c2ccn1Cc1ccccc1` are above 200 µM and above 200 µM.
With `CN(c1cn(C2CC[C@@H](CO)O2)c(=O)[nH]c1=O)C1CCCCC1` (stereo partly drawn), the EC50 is above 200 µM and the IC50 is above 200 µM.
For `CCSC1(SCC)CCN(C=NC(C)(C)C)C1`, the EC50 is above 912 µM and the IC50 was above 912 µM.
For the molecule `Cc1ccc(NC(=O)CC2C(=O)Nc3ccccc3S2=O)cc1C` (stereo not drawn), the EC50 is above 15.1 µM and the IC50 is above 15.1 µM.
For `NC1=NC2=C(CCCC2)C(c2cccs2)S1` (stereo not drawn), the EC50 was above 145 µM and the IC50 is above 145 µM.
On to `CN(C)Cc1cc(N=Nc2cccc(Cl)c2)ccc1O`, for which the EC50 is above 20 µM and the IC50 was 4.79 µM.
Take `CCn1cc(C(=O)O)c(=O)c2cc(Cl)c(-n3cccc3)cc21`: the result was inactive.
The same measure, in the same setting: with `O=CCCCC(Sc1ccccc1)Sc1ccccc1` the entry was “inactive”.
Regarding `O=C1c2ccccc2CC12Cc1ccccc1C2`, the EC50 is above 200 µM and the half-inhibitory concentration (IC50) amounted to 69.2 µM.
As for `CCCCOC(=O)NC(Nc1ccc(S(=O)(=O)Nc2ccc(OC)nn2)cc1)(C(F)(F)F)C(F)(F)F`, the EC50 was above 200 µM and the IC50 is above 200 µM.
`CC(=O)N(C)c1ccc2ncccc2c1[N+](=O)[O-]`: the EC50 was above 1020 µM and the IC50 is 562 µM.
For the molecule `O=C(Nc1ccc(Br)cc1)C(=O)C(C(=O)c1ccc(Cl)c(Cl)c1)C1OC(=O)c2ccccc21` (stereo not drawn), the EC50 is above 66.1 µM and the IC50 was determined as 10 µM.
In the case of `O=C1C=CC(=O)c2c1ccc1c3ccccc3n(CCCCCn3c4ccccc4c4ccc5c(c43)C(=O)C=CC5=O)c21`, the EC50 was above 200 µM and the IC50 came to 3.31 µM.
For `CC(c1ccccc1)/[N+]([O-])=C/c1ccccc1` (stereo not drawn), the EC50 is above 1120 µM and the IC50 is above 1120 µM.
For `COC(=O)C1ON2C(C1C(=O)OC)C(C)(C)N(O)C2(C)C` (stereo not drawn), the EC50 was above 200 µM and the IC50 is above 200 µM.
Regarding `Cc1ccc(C)c(N=Nc2c(S(=O)(=O)O)cc3cc(NC(=O)Nc4ccc5c(O)c(N=Nc6ccc7cc(S(=O)(=O)O)ccc7c6)c(S(=O)(=O)O)cc5c4)ccc3c2O)c1`, the EC50 is 16.2 µM and the IC50 was above 100 µM.
As for `Cc1ccc(/C=N\NC(=O)c2ccncc2)s1`, the EC50 was above 200 µM and the 50% inhibitory concentration (IC50) was 117 µM.
For `CCOC(=O)C1=NN(c2ccccc2)C(=O)/C1=C\N1C(=O)/C(=C/c2cccc(O)c2)SC1=S`, the EC50 was above 200 µM and the IC50 came out at 38.9 µM.
Take `c1ccc(N2N=C(c3ccco3)CC2c2ccco2)cc1` (stereo not drawn): the EC50 was above 25.7 µM and the IC50 is above 25.7 µM.
As to `COc1ccc(N2C(=O)C3CC(c4ccc(Br)cc4)c4c([nH]c5ccccc45)C3C2=O)cc1` (stereo not drawn), the EC50 is above 14.5 µM and the IC50 is 11 µM.
On to `CC1C(=O)C2CC3(C)CO[C@@]2(C3O)[C@@]2(C)CC[C@@H]12` (stereo partly drawn), for which the result was inactive.

For the origin of these results see PubChem BioAssay AID179 (DTP/NCI, 2004).
